Laboratory results taken from patent publication US9314966B2, “Bandseal for PEG-filled hard capsule” (QUALICAPS CO., LTD., priority 2007, dated 2016).

Columns and labels:
Assay type in all cases: physicochemical
[1] = Solubility in PEG400 (naked-eye inspection); details: for solubility: polyethylene glycol 400 (PEG400), organic solvent or mixture, thermodynamic from solid, read-out: Solubility in PEG400, Evaluation results
Procedure: 0.5 g each of the high-molecular compounds and plasticizers were placed into separate test tubes. 5 mL of PEG400 was added to each test tube. After stirring with a mixer, the resulting mixtures were inspected with the naked eye and the high-molecular compounds and plasticizers were evaluated for their solubility in PEG400.

[2] = Solubility in 10 wt. % aqueous PVA copolymer solution; details: aqueous with cosolvent or surfactant or cyclodextrin, thermodynamic from solid; 0.5 g in 10 wt. % aqueous PVA copolymer (POVACOAT Type F) solution; read-out: Solubility in the Aqueous PVA Copolymer Solution, Evaluation result
Procedure: (§1) Based on the results of Experimental Example 1, the candidates as raw materials for the band seal (see Table 2) were tested to research substances soluble in an aqueous solution of a PVA copolymer (POVACOAT Type F, product of Daido Kasei Corp., viscosity: 5.5 mPa·s, as measured at 25° C. using a 5% aqueous solution of the copolymer), and an aqueous solution of PVA (JP-05, product of Japan Vam & Poval Co., Ltd., average degree of polymerization: 500).
(§2) More specifically, 0.5 g each of the film-forming high-molecular compounds and plasticizers were placed into separate test tubes. A 10 wt. % aqueous solution of the PVA copolymer or a 10 wt. % aqueous solution of the PVA was added to each test tube. […] If some solids or liquid separation was observed, the mixture was evaluated as “not dissolved (insoluble)”.

[3] = Solubility in 10 wt. % aqueous PVA solution; details: aqueous with cosolvent or surfactant or cyclodextrin, thermodynamic from solid; 0.5 g in 10 wt. % aqueous PVA (JP-05) solution; read-out: Solubility in the Aqueous PVA Solution, Evaluation result
Procedure: as §1, §2

[4] = 0.5 g in 5 mL of PEG400, stirred, naked eye

| Molecule | solubility [1, 4] [mg/mL] | further results |
| --- | --- | --- |
| Polysorbate 80 | – | Solubility in PEG400, Evaluation results [1, 4]: x (x: dissolved) |
| OCC(O)CO [Glycerol] | > 100 | – |
| OC[C@@H](O)[C@@H](O)[C@H](O)[C@@H](O)CO [Sorbitol] | < 100 | solubility [2]: > 100 mg/mL; Solubility in PEG (in words) ([1]; 0.5 g in 5 mL of PEG400): insoluble; solubility [3]: > 100 mg/mL |

The next lines start with results.

| solubility [1, 4] [mg/mL] | Molecule | further results |
| --- | --- | --- |
| > 100 | CC(O)CO (centres unmarked) [Propylene glycol] | – |
| > 100 | CC(=O)OCC(COC(C)=O)OC(C)=O [Triacetin] | – |
